Results as given in patent US20250304567A1, “PYRROLIDIONE DERIVATIVES AS INHIBITORS OF NF KAPPA B INDUCING KINASE” (priority 2022, published 2025).

How the values were obtained:
[1] = target: Recombinant Human NF-kappaB-Inducing Kinase (NIK/MAP3K14) (Homo sapiens, UniProt Q99558); experiment: Inhibition of auto-phosphorylation of recombinant human NIK/MAP3K14 activity (AlphaScreen); assay type: biochemical; conditions: 5 μM ATP, 1 nM NIK, average if tested more than once
Procedure, shortened: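 AlphaScreen detection of phospho-Ser176/180 after 1 nM GST-NIK auto-phosphorylates for 2 h at 25 °C with 5 μM ATP (50 mM Tris pH 7.5, 0.7% DMSO). IC50s come from sigmoidal curves of % inhibition against log dose, using enzyme-free, ATP-free low controls and full-activity high controls.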

[2] = test system: p-IKKa levels in L363 (NIK translocated multiple myeloma) cells; experiment: Effect of compounds on p-IKKa levels in L363 (NIK translocated multiple myeloma) cells (AlphaLISA SureFire Ultra p-IKKa Ser176/180); assay type: cell-based, human; conditions: Homo sapiens, L-363, p-IKKa levels in L363 cells; average if tested more than once; read-out: Assay 2 IC50
Procedure, shortened: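 Phospho-IKKa (Ser176/180) in lysates quantified by AlphaLISA after 6 h compound exposure, 11-point threefold dilutions, 0.3% DMSO. L363 cells were pre-stimulated overnight and assayed with 250 ng/ml BAFF and 10 μM MG132; % inhibition fitted sigmoidally for IC50, duplicate curves.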

Recombinant Human NF-kappaB-Inducing Kinase (NIK/MAP3K14), sequence (Q99558 whole entry): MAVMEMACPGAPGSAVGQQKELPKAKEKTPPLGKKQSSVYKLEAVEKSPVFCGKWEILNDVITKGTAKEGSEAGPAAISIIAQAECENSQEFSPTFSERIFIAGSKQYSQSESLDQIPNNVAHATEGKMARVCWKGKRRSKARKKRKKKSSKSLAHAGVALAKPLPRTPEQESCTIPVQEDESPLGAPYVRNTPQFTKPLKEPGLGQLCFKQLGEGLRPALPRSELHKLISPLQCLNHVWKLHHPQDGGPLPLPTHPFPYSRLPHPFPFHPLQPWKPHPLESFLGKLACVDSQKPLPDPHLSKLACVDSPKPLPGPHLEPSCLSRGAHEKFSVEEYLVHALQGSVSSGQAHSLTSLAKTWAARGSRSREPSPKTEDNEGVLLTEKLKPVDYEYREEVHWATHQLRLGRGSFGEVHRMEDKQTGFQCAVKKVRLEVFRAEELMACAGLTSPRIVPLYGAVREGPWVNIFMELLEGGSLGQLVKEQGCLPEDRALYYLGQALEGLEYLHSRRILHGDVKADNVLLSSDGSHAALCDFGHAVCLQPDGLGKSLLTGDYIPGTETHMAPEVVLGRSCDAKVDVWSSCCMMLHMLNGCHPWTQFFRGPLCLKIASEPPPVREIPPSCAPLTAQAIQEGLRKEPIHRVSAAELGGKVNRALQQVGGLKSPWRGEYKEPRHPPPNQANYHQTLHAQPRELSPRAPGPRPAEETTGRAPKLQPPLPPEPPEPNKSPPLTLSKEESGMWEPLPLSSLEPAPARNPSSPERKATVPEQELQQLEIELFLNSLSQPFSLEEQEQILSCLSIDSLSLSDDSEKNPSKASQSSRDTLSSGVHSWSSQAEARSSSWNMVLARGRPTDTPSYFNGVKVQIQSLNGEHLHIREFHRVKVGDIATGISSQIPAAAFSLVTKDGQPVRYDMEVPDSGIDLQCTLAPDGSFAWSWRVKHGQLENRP

`C[C@H](Nc1nccc(-c2csc(-c3cccc([C@]4(O)CCN(C)C4=O)c3)n2)n1)c1cn[nH]c1` (single isomer, unassigned) [Example 138] gave an IC50 [1] of less than 100 nM and an IC50 [2] greater than 501 nM.
